The record followed here is PubChem BioAssay (NCI).

Molecules are shown by their SMILES. “And” between values parts separate entries of the source, which are not always exact repeats. Equal entries are not always repeated.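 Each compound was tested at five concentrations against cells in 96-well plates for 48 hours. The concentration for 50% growth inhibition is given as GI50. TGI is the concentration that stops growth completely.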 Some results are limits rather than exact numbers.

Among the test systems are U251 CNS; MOLT-4 leukemia; SK-MEL-28 melanoma; SNB-75 CNS; UACC-62 melanoma; SF-295 CNS; COLO 205 colon; SF-539 CNS; SK-MEL-2 melanoma; A549 NSCLC.
Holding throughout (assay): DTP human tumour cell line panel, 48 h

The term GI50 denotes the concentration that inhibits growth by half. As usually defined, the TGI is the concentration giving total growth inhibition. A lower TGI goes with more potent growth arrest. With `CCn1c(-c2nonc2N)nc2cncc(C(=O)N3CC[C@H](N)C3)c21`, the GI50 in the test on U251 CNS is > 25 µM; in the test on MOLT-4 leukemia, > 25 µM; with SK-MEL-28 melanoma it was > 25 µM; with SNB-75 CNS, 0.319 µM; with UACC-62 melanoma, > 25 µM; in the test with SF-295 CNS, 5.05 µM. Also, the GI50 is 5.87 µM with COLO 205 colon, 2.63 µM with SF-539 CNS, > 25 µM in the test on SK-MEL-2 melanoma and 7.29 µM with A549 NSCLC. Also, the TGI with U251 CNS was > 25 µM; with MOLT-4 leukemia, > 25 µM; with SK-MEL-28 melanoma it was > 25 µM; with SNB-75 CNS, > 7.84 µM; in the test on UACC-62 melanoma, > 25 µM; in the test on SF-295 CNS it was > 25 µM. Also, the TGI with COLO 205 colon is 24.7 µM; with SF-539 CNS it was > 25 µM; with SK-MEL-2 melanoma, > 25 µM; in the test on A549 NSCLC, > 25 µM.
Consider `CCN(CC)Cc1cc2[nH]c3c4ccc(Cl)cc4ncc3c2cc1OC`, for which the GI50 in the test on U251 CNS was 2.18 µM and 2.16 µM; in the test on MOLT-4 leukemia, 2.24 µM and 2.56 µM; with SK-MEL-28 melanoma it was 1.95 µM and 1.88 µM; with SNB-75 CNS, 1.61 µM and 1.81 µM; with UACC-62 melanoma, 15.5 µM and 1.81 µM; in the test with SF-295 CNS, 4.98 µM and 1.95 µM. For the same compound, the GI50 with COLO 205 colon was 3.69 µM and 1.79 µM; in the test on SF-539 CNS it was 1.61 µM and 1.78 µM; in the test on SK-MEL-2 melanoma, 7.39 µM and 16.5 µM; in the test with A549 NSCLC, 3.46 µM and 3.16 µM. For the same compound, the TGI was 5.97 µM and 5.39 µM in the test on U251 CNS; > 21.8 µM and 6.8 µM in the test on MOLT-4 leukemia; 3.53 µM and 3.42 µM in the test on SK-MEL-28 melanoma; 3.92 µM and 3.88 µM with SNB-75 CNS; 29.4 µM and 3.46 µM in the test with UACC-62 melanoma; 9.67 µM and 4.01 µM with SF-295 CNS. Besides, the TGI with COLO 205 colon is 8.54 µM and 3.26 µM; in the test on SF-539 CNS, 2.97 µM and 3.25 µM; with SK-MEL-2 melanoma it was 16.6 µM and 31.6 µM; in the test with A549 NSCLC, 13.3 µM and 10.5 µM.
`c1ccc2c3c([nH]c2c1)C(c1ccc(C2NCCc4c2[nH]c2ccccc42)cc1)NCC3` (stereo not drawn): the GI50 with U251 CNS is 0.321 µM; in the test on MOLT-4 leukemia it was 0.378 µM; in the test on SK-MEL-28 melanoma, 1.68 µM; in the test on SNB-75 CNS, 0.691 µM; with UACC-62 melanoma it was 0.749 µM; in the test on SF-295 CNS, 1.62 µM. For the same compound, the GI50 was 0.204 µM with COLO 205 colon, 1.62 µM in the test on SF-539 CNS, 1.7 µM with SK-MEL-2 melanoma and 1.1 µM in the test on A549 NSCLC. Further, the TGI came out at 1.1 µM with U251 CNS; 1.53 µM with MOLT-4 leukemia; 3.18 µM in the test with SK-MEL-28 melanoma; 2.07 µM with SNB-75 CNS; 2.13 µM with UACC-62 melanoma; 3.33 µM in the test with SF-295 CNS. Also, the TGI in the test on COLO 205 colon was determined as 0.459 µM; in the test on SF-539 CNS, 3.04 µM; in the test with SK-MEL-2 melanoma, 3.57 µM; in the test with A549 NSCLC, 2.54 µM.
On to `COC(=O)C=Cc1ccc2nncnc2c1` (mixture of isomers), for which the TGI in the test with U251 CNS was > 100 µM; with MOLT-4 leukemia, > 100 µM; in the test on SK-MEL-28 melanoma, > 100 µM; in the test with SNB-75 CNS it was 55.1 µM; in the test on UACC-62 melanoma, 32.2 µM; in the test on SF-295 CNS, 64.3 µM. Also, the TGI was > 100 µM with COLO 205 colon, > 100 µM in the test on SF-539 CNS, > 100 µM in the test on SK-MEL-2 melanoma and 56.4 µM in the test with A549 NSCLC.
Turning to `Cc1cc(N2CCN(C)CC2)n2nc(-c3ccc(Cl)cc3)nc2n1`, the TGI with U251 CNS, in the test on MOLT-4 leukemia, in the test on SK-MEL-28 melanoma, with SNB-75 CNS, with UACC-62 melanoma and in the test with SF-295 CNS was > 100 µM throughout. Further, the TGI in the test with COLO 205 colon, with SF-539 CNS, in the test on SK-MEL-2 melanoma and with A549 NSCLC was > 100 µM in each case.
In the case of `COc1ccc(/C=C/C(=O)c2sc(-n3nc(-c4ccccc4)cc3-c3ccccc3)nc2C)cc1`, the TGI in the test with U251 CNS, in the test with MOLT-4 leukemia, in the test on SK-MEL-28 melanoma, with SNB-75 CNS, in the test with UACC-62 melanoma and in the test with SF-295 CNS was > 100 µM each time. Also, the TGI with COLO 205 colon, in the test on SF-539 CNS, in the test with SK-MEL-2 melanoma and in the test on A549 NSCLC was > 100 µM each time. In addition, the GI50 in the test on SK-MEL-28 melanoma is > 100 µM; in the test with SNB-75 CNS it was 56.1 µM; in the test with UACC-62 melanoma, > 100 µM; in the test on SF-295 CNS it was > 100 µM; in the test on COLO 205 colon, > 100 µM; in the test with SF-539 CNS, > 100 µM. Besides, the GI50 with SK-MEL-2 melanoma and in the test with A549 NSCLC was > 100 µM each time.
In the case of `CC(=O)[O][Hg][c]1c(C)c(C)cc(C)c1C`, the GI50 was 0.765 µM in the test on U251 CNS; 0.242 µM with MOLT-4 leukemia; 1.5 µM in the test on SK-MEL-28 melanoma; 1.48 µM with SNB-75 CNS; 1.69 µM in the test on UACC-62 melanoma; 1.87 µM with SF-295 CNS. For the same compound, the GI50 in the test with COLO 205 colon is 2.49 µM; in the test on SF-539 CNS, 1.51 µM; in the test on SK-MEL-2 melanoma, 1.53 µM; in the test on A549 NSCLC, 5.55 µM. In addition, the TGI in the test on U251 CNS turned out to be 2.26 µM; in the test on MOLT-4 leukemia it was 4.54 µM; in the test with SK-MEL-28 melanoma, 3.02 µM; in the test on SNB-75 CNS, 2.99 µM; in the test with UACC-62 melanoma it was 4.59 µM; with SF-295 CNS it was 4.14 µM. In addition, the TGI in the test on COLO 205 colon came out at 6.47 µM; in the test with SF-539 CNS, 3.11 µM; with SK-MEL-2 melanoma, 3.3 µM; with A549 NSCLC, 15 µM.
